Source: article PMC10835127, “Viruses traverse the human proteome through peptide interfaces that can be biomimetically leveraged for drug discovery” (Proceedings of the National Academy of Sciences of the …, 2024)
Like-named read-outs stand apart in the source and are kept apart here.

How the values were obtained:
influenza A H1N1 virus = conditions: 48 hr post-treatment, A549
[1] = test system: F. novicida (strain U112); assay type: cell-based
EBV = conditions: normalized mean of EBV replication readout
HCV replicon = assay type: cell-based; conditions: for HCV Norm MEAN: normalized mean of HCV replicon readout
HIV1 strain NL4-3 = assay type: cell-based; conditions: normalized mean of HIV1 replication readout

Row | Substance | Neuraminidase activity normalized to vehicle (influenza A H1N1 virus; 200 µM peptide) | Neuraminidase activity normalized to vehicle (influenza A H1N1 virus; 0,823 µM peptide) | Neuraminidase activity normalized to vehicle (influenza A H1N1 virus; 22,2 µM peptide) | Neuraminidase activity normalized to vehicle (influenza A H1N1 virus; 2,4691 µM peptide) | Neuraminidase activity normalized to vehicle (influenza A H1N1 virus; 7,4074 µM peptide) | Neuraminidase activity normalized to vehicle (influenza A H1N1 virus; 66,6667 µM peptide) | Francisella novicida Norm AUC [1] | EBV Norm MEAN (EBV) | HCV Norm MEAN (HCV replicon) | HIV1 Norm MEAN (HIV1 strain NL4-3) | EBV Norm MEAN (EBV; peptide screen) | HCV Norm MEAN (HCV replicon; peptide screen) | HIV1 Norm MEAN (HIV1 strain NL4-3; peptide screen) | activity in HCV screen (in words) (HCV replicon; 20 µM peptide, Huh7, replicon luciferase)
1 | LQQLL [CPEP130] | 1,0055 | 0,8445 | 0,933 | 0,8513 | 0,8415 | 1,0245 | 0.7754 | 1.354 | 0.1679 | 1.886 |  |  |  | 
2 | PKKKRKV [CPEP56] | 0,9628 | 1,0162 | 0,9231 | 0,8416 | 0,8936 | 0,9527 | 1.16 | 0.9787 | 0.1426 | 0.9705 |  |  |  | 
3 | DKELYPLTSLRSLFG [CPEP65] | 0,356 | 0,8623 | 1,0442 | 0,9706 | 0,9802 | 1,0044 | 0.6089 |  |  |  | 0.6954 | 0.8278 | 0.2888 | 
4 | RHIICHGGVI [CPEP133] | 0,0947 | 0,951 | 0,4954 | 0,9186 | 0,811 | 0,1797 | 0.5145 | 1.143 | 0.3927 | 7.136 |  |  |  | 
5 | CPEP135: peptide of the viral peptide library; sequence page not shown (KGHRGSHTMNGH) | 0,865 | 0,9322 | 0,9598 | 0,9359 | 0,8333 | 0,9822 | 1.216 | 0.8556 | 0.5732 | 0.5949 |  |  |  | 
6 | PVQLSYYD [CPEP144] | 0,7318 | 1,0036 | 0,9081 | 0,8026 | 0,9626 | 0,8536 | 1.621 | 1.072 | 0.1325 | 1.139 |  |  |  | peptide inhibiting HCV
7 | CPEP127: peptide of the viral peptide library; sequence page not shown (LVKPTVYVYSR) | 0,2557 | 0,9001 | 0,8705 | 1,007 | 0,8577 | 0,9535 | 0.4703 | 0.673 | 0.6257 | 1.624 |  |  |  | 
8 | FVKSNWGLF [CPEP101] | 0,7463 | 1,0136 | 0,9003 | 0,9061 | 0,9057 | 0,8948 | 1.6479 | 1.466 | 0.5497 | 0.9706 |  |  |  | 
9 | RTYGTWEDLFCDESL [CPEP128] | 0,6933 | 0,9138 | 1,0305 | 1,0131 | 0,9772 | 1,0247 | 0.8745 |  |  |  | 1.318 | 0.6752 | 0.383 | 
10 | MSSDLRLTLLELVRRL [CPEP66] | 1,1231 | 1,0081 | 1,2015 | 1,0026 | 1,0851 | 1,0904 | 1.55 |  |  |  | 1.239 | 1.3108 | 8.878 | 
